The values that follow come from patent US9458141B2, “Low molecular weight thyroid stimulating hormone receptor (TSHR) agonists” (The United States of America, as represented by the …, priority 2008, dated 2016).

For the assay, the target named is T1, human TSHR (Homo sapiens, UniProt P16473).
T1 construct: expressed in transfected cells
In words: Homogeneous Time Resolved Fluorescence (HTRF) cAMP assay, TSHR cell line. It counts as cell-based. The following applies: for AC50: HTRF cAMP, TSHR cell line, 30 minute incubation; for Emax: read-out: Maximum Activity compared to TSH, 100% activity = response of 30 mU/ml TSH, 0% = DMSO control; for Maximum Activity compared to TSH: 100% activity = response of 30 mU/ml TSH, 0% = DMSO control, in %.

One may read the AC50 as the concentration giving half of the maximal activity seen.

Read-outs that look alike come from different tables or passages of the source.

T1 sequence (P16473 21-764): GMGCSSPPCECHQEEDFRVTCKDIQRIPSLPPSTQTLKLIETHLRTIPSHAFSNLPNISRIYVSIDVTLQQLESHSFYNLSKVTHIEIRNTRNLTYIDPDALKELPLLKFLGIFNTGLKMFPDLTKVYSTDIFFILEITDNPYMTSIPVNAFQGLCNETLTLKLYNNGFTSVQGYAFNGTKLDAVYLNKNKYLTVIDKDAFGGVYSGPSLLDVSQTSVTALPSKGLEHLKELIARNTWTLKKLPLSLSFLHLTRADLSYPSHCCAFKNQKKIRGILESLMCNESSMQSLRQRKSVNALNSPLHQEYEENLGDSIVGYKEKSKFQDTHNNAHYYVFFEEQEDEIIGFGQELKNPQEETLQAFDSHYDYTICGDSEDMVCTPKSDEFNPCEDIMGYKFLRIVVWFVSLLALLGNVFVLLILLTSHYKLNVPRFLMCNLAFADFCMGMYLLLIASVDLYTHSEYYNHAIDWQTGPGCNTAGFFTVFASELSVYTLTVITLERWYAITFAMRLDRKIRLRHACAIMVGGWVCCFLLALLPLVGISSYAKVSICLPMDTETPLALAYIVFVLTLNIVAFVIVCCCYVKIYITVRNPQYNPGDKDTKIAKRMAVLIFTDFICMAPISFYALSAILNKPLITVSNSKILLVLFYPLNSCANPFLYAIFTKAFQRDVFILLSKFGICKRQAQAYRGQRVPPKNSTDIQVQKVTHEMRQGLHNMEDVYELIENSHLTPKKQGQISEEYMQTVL

As to `COc1ccc(-c2nc3ccccc3c(=O)n2Cc2ccccc2)cc1CNc1ccc(NC(C)=O)cc1` [Structure 173], the Emax is 30%. For the same molecule, the half-maximal activity concentration (AC50) (read-out: AC50) was found to be 15.8 µM.

Turning to `O=C1CC(c2ccco2)CC2=C1C(c1ccc(O)cc1)n1nc(C(F)(F)F)nc1N2` (stereo not drawn) [Structure 174], the AC50 entry is “inactive”.

`COc1ccc(C2Nc3ccccc3C(=O)N2Cc2ccc(C(C)(C)C)cc2)cc1COc1ccc(NC(C)=O)cc1` (stereo not drawn) [Structure 175]: the AC50 entry is “inactive”. Consider `CCC(=O)Nc1ccc(OCc2cc(C3Nc4ccccc4C(=O)N3Cc3ccccc3)ccc2OC)cc1` (stereo not drawn) [Structure 177], for which the Emax was determined as 29%. For the setting “read-out: AC50”, the AC50 stood at 5.62 µM. Regarding `COc1ccc(C2Nc3ccccc3C(=O)N2Cc2ccco2)cc1` (stereo not drawn) [Structure 178], the half-maximal activity concentration (AC50) result is “inactive”.

Turning to `COc1ccc(-c2nc3ccccc3n2Cc2ccccc2)cc1COc1ccc(NC(C)=O)cc1` [Structure 179], the concentration at half-maximal activity (AC50) entry was “inactive”. In the case of `O=C1c2ccccc2NC(c2ccccc2O)N1Cc1ccccc1` (stereo not drawn) [Structure 180], the concentration at half-maximal activity (AC50) result was “inactive”. For the molecule `COc1ccc(-c2nc3ccc(Cl)cc3c(=O)n2Cc2ccccc2)cc1COc1ccc(NC(C)=O)cc1` [Structure 181], the Emax was found to be 22.5%. Also, the AC50 (read-out: AC50) was found to be 3.98 µM.

In the case of `COc1ccc(C2Nc3ccccc3C(=O)N2Cc2ccco2)cc1COc1c(C)cccc1C` (stereo not drawn) [Structure 182], the AC50 entry is “inactive”. On the same count and under the same terms, under `O=C1CC(c2ccco2)CC2=C1C(c1ccncc1)n1nc(C(F)(F)F)nc1N2` (stereo not drawn) [Structure 183] stands “inactive”. On to `COc1ccc(C=O)cc1COc1ccc(NC(C)=O)cc1` [Structure 184], for which the half-maximal activity concentration (AC50) result was “inactive”. Same read-out and setting: under `COc1ccc(C2Nc3ccccc3C(=O)N2CCCN(C)C)cc1COc1ccc(NC(C)=O)cc1` (stereo not drawn) [Structure 186] stands “inactive”; under `COc1ccc(C2Nc3ccc(Cl)cc3C(=O)N2Cc2ccccc2)cc1COc1ccc(C(N)=O)cc1` (stereo not drawn) [Structure 187], “inactive”; under `COc1ccc(C2Nc3ccccc3C(=O)N2Cc2ccco2)cc1COc1ccc([N+](=O)[O-])cc1` (stereo not drawn) [Structure 188], “inactive”. As to `COc1ccc(CN(Cc2ccccc2)C(=O)c2ccccc2O)cc1` [Structure 189], the “Maximum Activity compared to TSH” value is 24.00. For the same molecule, the AC50 (read-out: AC50) turned out to be 22.4 µM. Take `COc1ccc(-c2nc3ccc(NC(C)=O)cc3c(=O)n2Cc2ccccc2)cc1COc1ccc(NC(C)=O)cc1` [Structure 191]: the AC50 result was “inactive”.

As to `O=c1c2ccccc2nc(-c2ccccc2O)n1Cc1ccccc1` [Structure 192], the AC50 entry was “inactive”. In the case of `CC(=O)Nc1cccc(OCc2cccc(C3Nc4ccccc4C(=O)N3Cc3ccco3)c2)c1` (stereo not drawn) [Structure 193], the concentration at half-maximal activity (AC50) entry was “inactive”. Regarding `O=C(c1ccccc1O)N(Cc1ccccc1)Cc1ccccc1` [Structure 194], the “Maximum Activity compared to TSH” value is 27.50. The AC50 (read-out: AC50) worked out at 31.6 µM. Consider `COc1ccc(-c2nc3ccccc3c(=O)n2Cc2ccccc2)cc1OCc1ccc(NC(C)=O)cc1` [Structure 195], for which the half-maximal activity concentration (AC50) result was “inactive”.

With `COc1ccc(C2Nc3ccccc3C(=O)N2Cc2ccccc2)cc1COc1ccc(C)cc1` (stereo not drawn) [Structure 196], the half-maximal activity concentration (AC50) entry is “inactive”. Take `COc1ccc(C2Nc3ccccc3C(=O)N2Cc2ccc(C(F)(F)F)cc2)cc1COc1ccc(NC(C)=O)cc1` (stereo not drawn) [Structure 197]: the Emax was 17%. Under “read-out: AC50”, the AC50 stood at 2.82 µM.

As to `COc1ccc(C2Nc3ccccc3C(=O)N2Cc2ccccc2OC)cc1COc1ccc(NC(C)=O)cc1` (stereo not drawn) [Structure 198], the Emax is 18%. For the same molecule, the AC50 (read-out: AC50) worked out at 20 µM.

For `COc1ccc(C2Nc3ccccc3C(=O)N2Cc2ccccc2)cc1COc1cccc(C)c1` (stereo not drawn) [Structure 200], the “Maximum Activity compared to TSH” value worked out at 38.00. Where the note is “read-out: AC50”, the concentration at half-maximal activity (AC50) was found to be 28.2 µM.

`COc1ccc(C2Nc3ccccc3C(=O)N2Cc2ccccc2C)cc1COc1ccc(NC(C)=O)cc1` (stereo not drawn) [Structure 201]: the AC50 entry is “inactive”.
